Experimental data published in patent US4816490A, “Novel therapeutic use of a derivative of indane dione and the pharmaceutical compositions intended for this use” (priority 1987, dated 1989).

Key:
Format in all cases: in vivo
[1] = Anti-lipaemiant activity (general statement); settings: read-out: Dose from which a clear anti-lipaemiant activity is shown
[2] = Anti-inflammatory / analgesic activity; settings: doses lower than previously disclosed
Experimental: The said 2-[(3,4-dimethoxy-benzoyl)-methyl]-2-hydroxy-1,3-dioxo-Indane has been used in the French patent at a dose of 250 mg/kg to induce an anti-inflammatory threshold effect. Consequently, the dosology disclosed in the French patent for the use in human therapy shall range from 400 to 1200 mg daily.

[3] = test system: hyperlipidaemia induced by TRITON WR 1339; assay: Hyperlipidaemia induced by TRITON WR 1339 in the Wistar rat; settings: for Dose dependence of hypolipaemiant activity: 250 and 500 mg/kg
Experimental: Feeding by standard Regimen UAR A04
Drinking water ad libitum
6 animals per dose in a cage in MAKROLON of 60×40 cm filled with shavings of wood.
10 mn after: administration of the test compound
6 hours after: 1st sampling of the blood at the retro-orbital sinus
Total cholesterol by the colorimetric method of RICHMOND
Cholesterol in HDL by the colorimetric method of RICHMOND after precipitation by CONCANAVALIN A
Cholesterol in LDL by the colorimetric method of RICHMOND after precipitation by CONCANAVALIN A
Total lipids by the Zollner's sulphophosphovanillic method
Triglycerids by the BUCOLO's enzymatic method.

[4] = test system: male and female mice of Swiss strain; assay: Acute toxicity after single oral administration; settings: for Deaths / toxic symptoms: single dose 10 g/kg
From the text: Male and female mice of Swiss strain weighing from 22 to 25 g of body weight were free of pathogen specific organisms (EOPS), stemming from breeding CERJ (53860 LE GENEST (France) and acclimated for at least 8 days in the animalry of the firm.
Except where stipulated to the contrary, in the tables giving the results, 10 animals of the same sex for each dose were housed in cages of MAKROLON (Safi) of 40 cm by 25 cm filled with shaving of wood. Standard feeding for rats and mice, tablets UAR and tap water ad libitum.
The compounds were administered without previous fasting either orally (gastric tubing using a metallic oesophageous sonde) at a rate of 0.5 ml or 1 ml per 20 g of body weight of an aqueous suspension of the test compound in a 3% solution of arabic gum, or intraperitoneally at a rate of 0.5 ml or 1 ml per 20 g of body weight of the test compound suspended in an isotonic saline solution containing 3% of arabic gum.
For 6 days after the single administration and then every day for 15 days.
When necessary, the mean lethal doses (LD 50) were calculated by the method of Behrens and Karber (BK) and Miller and Tainter (MT). The latter allowing to supply with, for the threshold of probability P=0.05 a limit of confidence for the LD 50. Further calculated were the LDo i.e. DMT=maximal doses always tolerated and the LD100 i.e. DMM=minimal doses always lethal.
The compound was administered in a single dose to batches of 10 male or female mice weighing […] at a rate of 1 ml per 20 g of body weight.

Question: For `COc1ccc(C(=O)CC2(O)C(=O)c3ccccc3C2=O)cc1OC` [Compound of the invention, 2-[(3,4-dimethoxy-benzoyl)-methyl]-2-hydroxy-1,3-dioxo Indane], which minimal effective dose [1] is on record?
Answer: The minimal effective dose was at least 100 mg/kg.

Question: And the “Anti-inflammatory or analgesic properties at the antilipaemiant doses” value [2]?
Answer: The value was “does not show anti-inflammatory or analgesic properties”.

Question: What about the “Dose dependence of hypolipaemiant activity” value ([3]; 6 hours after TRITON WR 1339) of the same molecule?
Answer: The value was “directly proportional to the doses”.

Question: What about the “Dose dependence of hypolipaemiant activity” value ([3]; 24 hours after TRITON WR 1339) of the same molecule?
Answer: Its value is “inversely proportional to the dose”.

Question: What about the “Total Score vs 250 mg/kg Procetofene” value ([3]; 6 hours after, 125 mg/kg oral) of the same molecule?
Answer: Its value is 2.75.

Question: What about the “Total cholesterol score vs 250 mg/kg Procetofene” value ([3]; 6 hours after, 125 mg/kg oral) of the same molecule?
Answer: The value was 2.44.

Question: What about the “Triglycerids score vs 250 mg/kg Procetofene” value ([3]; 6 hours after, 125 mg/kg oral) of the same molecule?
Answer: Its value is 0.31.

Question: And the “Cholesterol HDL/LDL score vs 250 mg/kg Procetofene” value ([3]; 6 hours after, 250 mg/kg oral)?
Answer: Its value is 0.87.

Question: What about the “Total Score vs 250 mg/kg Procetofene” value ([3]; 6 hours after, 250 mg/kg oral) of the same molecule?
Answer: Its value is 3.74.

Question: And the “Total cholesterol score vs 250 mg/kg Procetofene” value ([3]; 6 hours after, 250 mg/kg oral)?
Answer: Its value is 1.15.

Question: And the “Total lipids score vs 250 mg/kg Procetofene” value ([3]; 6 hours after, 250 mg/kg oral)?
Answer: The value was 0.92.

Question: What about the “Triglycerids score vs 250 mg/kg Procetofene” value ([3]; 6 hours after, 250 mg/kg oral) of the same molecule?
Answer: The value was 0.80.

Question: And the “Cholesterol HDL/LDL score vs 250 mg/kg Procetofene” value ([3]; 6 hours after, 500 mg/kg oral)?
Answer: The value was 2.00.

Question: And the “Total Score vs 250 mg/kg Procetofene” value ([3]; 6 hours after, 500 mg/kg oral)?
Answer: The value was 4.95.

Question: And the “Total cholesterol score vs 250 mg/kg Procetofene” value ([3]; 6 hours after, 500 mg/kg oral)?
Answer: The value was 0.35.

Question: And the “Total lipids score vs 250 mg/kg Procetofene” value ([3]; 6 hours after, 500 mg/kg oral)?
Answer: Its value is 1.00.

Question: And the “Triglycerids score vs 250 mg/kg Procetofene” value ([3]; 6 hours after, 500 mg/kg oral)?
Answer: Its value is 1.60.

Question: And the “Total Score vs 250 mg/kg Procetofene” value ([3]; 6 hours after, 750 mg/kg oral)?
Answer: The value was 1.72.

Question: What about the “Total cholesterol score vs 250 mg/kg Procetofene” value ([3]; 6 hours after, 750 mg/kg oral) of the same molecule?
Answer: The value was 0.78.

Question: And the “Total lipids score vs 250 mg/kg Procetofene” value ([3]; 6 hours after, 750 mg/kg oral)?
Answer: The value was 0.14.

Question: What about the “Triglycerids score vs 250 mg/kg Procetofene” value ([3]; 6 hours after, 750 mg/kg oral) of the same molecule?
Answer: The value was 0.80.

Question: What about the “Cholesterol HDL/LDL score vs 250 mg/kg Procetofene” value ([3]; 24 hours after, 125 mg/kg oral) of the same molecule?
Answer: The value was 1.40.

Question: What about the “Total Score vs 250 mg/kg Procetofene” value ([3]; 24 hours after, 125 mg/kg oral) of the same molecule?
Answer: Its value is 1.94.

Question: What about the “Total cholesterol score vs 250 mg/kg Procetofene” value ([3]; 24 hours after, 125 mg/kg oral) of the same molecule?
Answer: The value was 0.28.

Question: And the “Triglycerids score vs 250 mg/kg Procetofene” value ([3]; 24 hours after, 125 mg/kg oral)?
Answer: The value was 0.26.

Question: What about the “Cholesterol HDL/LDL score vs 250 mg/kg Procetofene” value ([3]; 24 hours after, 250 mg/kg oral) of the same molecule?
Answer: The value was 1.10.

Question: And the “Total Score vs 250 mg/kg Procetofene” value ([3]; 24 hours after, 250 mg/kg oral)?
Answer: The value was 4.64.

Question: What about the “Total cholesterol score vs 250 mg/kg Procetofene” value ([3]; 24 hours after, 250 mg/kg oral) of the same molecule?
Answer: Its value is 1.13.

Question: And the “Total lipids score vs 250 mg/kg Procetofene” value ([3]; 24 hours after, 250 mg/kg oral)?
Answer: The value was 1.56.

Question: And the “Triglycerids score vs 250 mg/kg Procetofene” value ([3]; 24 hours after, 250 mg/kg oral)?
Answer: Its value is 0.85.

Question: What about the “Cholesterol HDL/LDL score vs 250 mg/kg Procetofene” value ([3]; 24 hours after, 500 mg/kg oral) of the same molecule?
Answer: Its value is 0.80.

Question: What about the “Total Score vs 250 mg/kg Procetofene” value ([3]; 24 hours after, 500 mg/kg oral) of the same molecule?
Answer: Its value is 3.66.

Question: What about the “Total cholesterol score vs 250 mg/kg Procetofene” value ([3]; 24 hours after, 500 mg/kg oral) of the same molecule?
Answer: The value was 0.75.

Question: What about the “Total lipids score vs 250 mg/kg Procetofene” value ([3]; 24 hours after, 500 mg/kg oral) of the same molecule?
Answer: Its value is 1.62.

Question: What about the “Triglycerids score vs 250 mg/kg Procetofene” value ([3]; 24 hours after, 500 mg/kg oral) of the same molecule?
Answer: Its value is 0.49.

Question: And the “Cholesterol HDL/LDL score vs 250 mg/kg Procetofene” value ([3]; 24 hours after, 750 mg/kg oral)?
Answer: The value was 0.40.

Question: And the “Total Score vs 250 mg/kg Procetofene” value ([3]; 24 hours after, 750 mg/kg oral)?
Answer: The value was 1.73.

Question: What about the “Total cholesterol score vs 250 mg/kg Procetofene” value ([3]; 24 hours after, 750 mg/kg oral) of the same molecule?
Answer: The value was 0.61.

Question: And the “Triglycerids score vs 250 mg/kg Procetofene” value ([3]; 24 hours after, 750 mg/kg oral)?
Answer: Its value is 0.72.

Question: What about the minimal effective dose ([3]; Rattus norvegicus, TRITON WR 1339, rats, oral, read-out: Oral dose from which hyperlipaemia was antagonized or decreased) of the same molecule?
Answer: Its minimal effective dose is at least 125 mg/kg.

Question: And the “Antihyperlipaemiant activity, compound vs Procetofene” value ([3]; same doses (250 and 500 mg/kg))?
Answer: Its value is “antihyperlipaemiant activity about equal”.

Question: And the Toxicity ([4]; general statement)?
Answer: The Toxicity was “very low toxicity”.

Question: And the LD100 ([4]; oral, male or female mice)?
Answer: The LD100 was over 10000 mg/kg.

Question: And the LDo ([4]; oral, male or female mice)?
Answer: The LDo was 10000 mg/kg.

Question: What about the “Deaths / toxic symptoms” value ([4]; oral, male or female mice) of the same molecule?
Answer: The value was “no toxicity even at a dose of 10 g/kg”.

Question: And the “Deaths / toxic symptoms” value ([4]; oral, male or female mice, listed as test compound)?
Answer: Its value is “no deaths nor toxic symptoms appeared”.

Question: What about the “Toxicity in comparison with Clofibrate” value ([4]; single administration, orally or parenterally) of the same molecule?
Answer: Its value is “less toxic than Clofibrate”.
